Five molecules from patent publication US11696914B1 (priority 2019, dated 2023) can be followed below.

The term Kd denotes the free concentration of one partner at which half of the binding sites on the other are occupied at equilibrium, for simple one-to-one binding. Read a high Kd as weaker binding.

The target in the assay is Zaire ebolavirus disulfide-linked glycoprotein heterodimer (GP1-GP2) (Zaire ebolavirus, UniProt Q05320). In words: biochemical. The class given is binding.

Molecules are shown by their SMILES.

Sequence of Zaire ebolavirus disulfide-linked glycoprotein heterodimer (GP1-GP2) (Q05320 33-501 limits assumed): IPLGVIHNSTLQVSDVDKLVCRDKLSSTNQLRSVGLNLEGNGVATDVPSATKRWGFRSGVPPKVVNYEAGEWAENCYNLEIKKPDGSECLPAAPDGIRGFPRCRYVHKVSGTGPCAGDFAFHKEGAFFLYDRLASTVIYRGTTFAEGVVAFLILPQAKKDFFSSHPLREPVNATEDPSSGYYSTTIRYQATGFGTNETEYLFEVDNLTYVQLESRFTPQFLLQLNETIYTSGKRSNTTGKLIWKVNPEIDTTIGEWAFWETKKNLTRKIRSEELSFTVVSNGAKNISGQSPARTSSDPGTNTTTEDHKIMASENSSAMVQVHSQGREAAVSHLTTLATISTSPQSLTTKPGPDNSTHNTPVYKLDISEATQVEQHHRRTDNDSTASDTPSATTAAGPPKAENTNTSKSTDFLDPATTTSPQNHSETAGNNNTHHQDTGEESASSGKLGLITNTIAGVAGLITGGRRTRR
Sequence of Zaire ebolavirus disulfide-linked glycoprotein heterodimer (GP1-GP2) (Q05320 502-676 limits assumed): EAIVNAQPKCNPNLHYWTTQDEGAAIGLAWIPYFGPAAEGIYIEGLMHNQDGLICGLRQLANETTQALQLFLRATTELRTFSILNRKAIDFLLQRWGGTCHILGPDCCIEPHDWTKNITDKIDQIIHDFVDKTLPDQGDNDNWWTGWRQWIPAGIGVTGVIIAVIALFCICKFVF

`CCN(CC)CCOc1ccc2c(c1)C(=O)c1cc(OCCN(CC)CC)ccc1-2` [Tilorone]: the Kd stood at 0.73 µM.

For `C[C@H]1[C@H](OC(=O)CCC(=O)O)O[C@@H]2O[C@@]3(C)CC[C@H]4[C@H](C)CC[C@@H]1[C@@]24OO3` [Artesunate], the “binds to EBOV glycoprotein” value is “did not”.

Take `COc1ccc2nc3cc(Cl)ccc3c(Nc3cc(CN4CCCC4)c(O)c(CN4CCCC4)c3)c2n1` [Pyronaridine, 4-[(7-Chloro-2-methoxybenzo[b][1,5]naph-thyridin-10-yl)amino]-2,6-bis(1-pyrrolidinylmethyl)phenol phosphate (1:4)]: binding was characterised by a dissociation constant (Kd) of 7.34 µM.

Consider `NC(=O)c1nc(F)c[nH]c1=O` [Favipiravir], for which the “binds to EBOV glycoprotein” value was “did not”.

As for `CCN(CC)CCCC(C)Nc1c2ccc(Cl)cc2nc2ccc(OC)cc12` (centres unmarked) [Quinacrine], the Kd was determined as 7.55 µM.
